Measurements: article PMC4674085, “Towards Prebiotic Catalytic Amyloids Using High Throughput Screening” (PLoS ONE, 2015)

Test: NMR-based 4NPA hydrolysis assay at pH 4.3
Format: biochemical
Details: 4NPA hydrolysis by 1D-1H NMR, 50 mM d3-NaOAc pH 4.3, 2% d6-DMSO, 40 μM total purified peptide (mixture 20 μM each), 0.9 mM 4NPA, 25°C, over 15 days, first order fit, no zinc(II)
Procedure: Purified peptides were solubilized in deuterated DMSO with 1% TFA at a concentration of 4 mM and subsequently diluted to 160 μM in 50 mM deuterated NaOAc buffer at pH 4.3. In the case of the peptide mixture fibrillization (12/21), each peptide was 80 μM. Fibrillization occurred over 5 days after which the sample was diluted to 40 μM total peptide in 50 mM buffer with 0.9 mM 4NPA (from a 90 mM stock solution in d6-DMSO) and a final concentration of d6-DMSO of 2%. From this reaction mixture 500 μl was transferred to a 5 mm NMR tube and measurements were performed in a 600 MHz Bruker NMR spectrometer equipped with a cryo-probe.
The hydrolysis kinetics were monitored in a continuous series of 1D-^1H experiments each consisting of 32 scans at 25°C and each requiring 17 min. In this manner, several time segments lasting between 8 and 17 hours were collected over a period of 15 days. Between measurements, the samples were kept at 25°C.
Data processing and peak integration was performed with Topspin3.2 (Bruker). Relevant peaks used for the analysis were the 4 aromatic protons of both 4NPA and of its product (p-nitrophenol) as well as the methyl groups of 4NPA and acetic acid. The ratio of the sum of integrals for the product protons to the sum of integrals for all protons was used to calculate the substrate concentration. […]

Ac-YVHVHVDV-NH2 [Peptide 21, Ac-YVHVHVDV-CONH2]
k cat/K M: 1598±20 10^-6M^-1s^-1
